Assay results taken from ChEMBL document CHEMBL5550183, “Discovery of Novel 1-Phenylpiperidine Urea-Containing Derivatives Inhibiting β-Catenin/BCL9 Interaction and Exerting Antitumor Efficacy through the Activation of Antigen Presentation of cDC1 Cells” (J Med Chem, 2024).

Key:
cells = settings: Homo sapiens, HCT-116, 24 h
Description: Inhibition of Wnt/beta-catenin signaling pathway in human HCT-116 cells assessed as reduction in Axin2 expression incubated for 24 hrs by qPCR analysis

CT26 [1] = assay: Antitumor activity against mouse CT26 cells implanted in BALB/c mouse assessed as increase in CD103+ expression level at 30 mg/kg, ip measured for 7 days by flow cytometry analysis (reference value: 4.95%); format: functional; settings: time 7 day
[2] = Antitumor activity against mouse PBMC cells implanted in BALB/c mouse assessed as increase in CD103 + XCR1 cDC1 expression at 30 mg/kg, ip measured for 7 days by qPCR analysis; format: functional; settings: time 7 day
CT26 [3] = assay: Antitumor activity against mouse CT26 cells implanted in BALB/c mouse assessed as tumor growth inhibition at 30 mg/kg, ip measured for 14 days; format: functional; settings: CT26, 336 h, time 14 day, read-out: TGI
in vitro [4] = settings: mouse, liver microsomes
Description: Metabolic stability in mouse liver microsome assessed as clearance preincubated with compound for 10 mins followed by NADPH addition and measured upto 60 mins by LC-MS/MS analysis

CT26 [5] = assay: Antitumor activity against mouse CT26 cells implanted in BALB/c mouse assessed as tumor growth inhibition at 30 mg/kg, ip measured for 7 days; settings: CT26, 168 h, read-out: TGI
in vitro [6] = settings: mouse, liver microsomes; remark: listed apart in the source
Description: Metabolic stability in mouse liver microsome assessed as half life preincubated with compound for 10 mins followed by NADPH addition and measured upto 60 mins by LC-MS/MS analysis

[7] = biological target: T1, beta-catenin-B-cell lymphoma 9 protein complex (Homo sapiens, UniProt P35222); assay: Inhibition of full length his-tagged human beta-catenin (1 to 781 residues) expressed in Escherichia coli DE3/N-terminal FAM-tagged human BCL9 (350 to 375 residues) protein-protein interaction incubated for 2 hrs by fluorescence polarization assay
T1 sequence (P35222 whole entry): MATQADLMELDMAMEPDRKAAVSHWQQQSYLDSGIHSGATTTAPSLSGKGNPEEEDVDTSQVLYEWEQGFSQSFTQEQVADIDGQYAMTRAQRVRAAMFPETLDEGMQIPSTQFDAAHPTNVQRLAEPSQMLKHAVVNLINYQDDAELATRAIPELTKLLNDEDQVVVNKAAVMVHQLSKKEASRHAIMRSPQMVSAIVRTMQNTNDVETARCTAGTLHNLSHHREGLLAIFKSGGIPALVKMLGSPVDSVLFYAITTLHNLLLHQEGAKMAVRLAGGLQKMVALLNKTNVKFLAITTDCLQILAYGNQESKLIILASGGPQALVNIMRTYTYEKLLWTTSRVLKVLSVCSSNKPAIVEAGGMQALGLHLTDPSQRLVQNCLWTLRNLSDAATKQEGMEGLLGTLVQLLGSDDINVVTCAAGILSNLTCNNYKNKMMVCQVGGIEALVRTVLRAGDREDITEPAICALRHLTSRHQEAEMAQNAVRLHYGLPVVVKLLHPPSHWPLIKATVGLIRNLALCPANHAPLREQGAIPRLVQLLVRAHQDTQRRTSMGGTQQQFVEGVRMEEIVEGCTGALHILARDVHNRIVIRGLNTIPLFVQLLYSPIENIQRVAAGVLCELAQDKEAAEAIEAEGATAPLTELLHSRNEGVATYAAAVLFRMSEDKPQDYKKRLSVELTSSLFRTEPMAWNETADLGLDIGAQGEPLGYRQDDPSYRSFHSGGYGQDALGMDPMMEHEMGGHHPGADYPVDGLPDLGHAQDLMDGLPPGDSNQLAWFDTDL
T1 sequence (O00512 whole entry): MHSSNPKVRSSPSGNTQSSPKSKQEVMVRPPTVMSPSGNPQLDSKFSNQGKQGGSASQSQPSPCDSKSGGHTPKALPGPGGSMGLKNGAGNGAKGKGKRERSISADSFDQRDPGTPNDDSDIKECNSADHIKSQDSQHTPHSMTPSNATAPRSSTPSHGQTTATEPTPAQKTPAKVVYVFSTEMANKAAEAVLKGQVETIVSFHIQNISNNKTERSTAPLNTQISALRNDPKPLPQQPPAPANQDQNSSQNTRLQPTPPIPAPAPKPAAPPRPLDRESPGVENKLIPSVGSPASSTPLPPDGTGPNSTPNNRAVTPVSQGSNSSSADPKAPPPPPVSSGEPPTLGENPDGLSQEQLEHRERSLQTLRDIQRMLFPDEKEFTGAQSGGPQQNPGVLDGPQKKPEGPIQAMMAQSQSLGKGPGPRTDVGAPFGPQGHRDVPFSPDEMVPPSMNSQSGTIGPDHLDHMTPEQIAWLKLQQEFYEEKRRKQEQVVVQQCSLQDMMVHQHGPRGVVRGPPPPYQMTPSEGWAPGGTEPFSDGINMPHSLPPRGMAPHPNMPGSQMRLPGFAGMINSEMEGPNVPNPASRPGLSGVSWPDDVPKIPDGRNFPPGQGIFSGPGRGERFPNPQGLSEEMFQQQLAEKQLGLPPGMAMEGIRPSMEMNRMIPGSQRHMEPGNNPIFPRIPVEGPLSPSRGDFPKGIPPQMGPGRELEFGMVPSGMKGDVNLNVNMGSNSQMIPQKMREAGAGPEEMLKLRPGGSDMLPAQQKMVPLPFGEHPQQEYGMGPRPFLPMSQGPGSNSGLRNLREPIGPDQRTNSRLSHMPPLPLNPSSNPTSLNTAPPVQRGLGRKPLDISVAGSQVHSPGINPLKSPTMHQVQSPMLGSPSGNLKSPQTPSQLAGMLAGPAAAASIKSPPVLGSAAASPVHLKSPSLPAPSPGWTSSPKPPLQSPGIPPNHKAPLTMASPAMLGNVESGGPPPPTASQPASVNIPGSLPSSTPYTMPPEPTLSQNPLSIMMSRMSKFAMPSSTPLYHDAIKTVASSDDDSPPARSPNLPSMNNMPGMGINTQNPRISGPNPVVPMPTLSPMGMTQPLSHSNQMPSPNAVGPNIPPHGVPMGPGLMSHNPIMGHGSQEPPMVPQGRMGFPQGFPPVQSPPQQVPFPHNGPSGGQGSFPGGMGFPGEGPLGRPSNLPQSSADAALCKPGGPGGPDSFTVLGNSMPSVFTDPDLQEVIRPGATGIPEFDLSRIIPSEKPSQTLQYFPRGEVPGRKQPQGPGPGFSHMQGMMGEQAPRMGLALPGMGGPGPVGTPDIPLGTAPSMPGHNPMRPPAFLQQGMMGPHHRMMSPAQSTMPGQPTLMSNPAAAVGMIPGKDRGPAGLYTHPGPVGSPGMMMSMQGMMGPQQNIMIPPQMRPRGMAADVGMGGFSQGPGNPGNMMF

Catenin beta-1 = biological target: T2, Catenin beta-1 (Homo sapiens, UniProt P35222); assay: Binding affinity to full length his-tagged human beta-catenin (1 to 781 residues) expressed in Escherichia coli DE3 assessed as dissociation constant by SPR analysis
T2 sequence (P35222 whole entry): T1 sequence (P35222 whole entry)

[8] = AUC (0 to t) in ICR mouse at 1 mg/kg, iv measured upto 24 hrs by HPLC-MS/MS analysis; format: ADME, organism-based; settings: in vivo
[9] = Toxicity in BALB/c mouse implanted with mouse CT26 cells assessed as body weight loss at 30 mg/kg, ip measured for 14 days; format: organism-based; settings: in vivo, 336 h, time 14 day
[10] = Clearance in ICR mouse at 1 mg/kg, iv measured upto 24 hrs by HPLC-MS/MS analysis; format: ADME, organism-based; settings: in vivo
[11] = Tmax in ICR mouse at 1 mg/kg, iv measured upto 24 hrs by HPLC-MS/MS analysis; format: ADME, organism-based; settings: in vivo
[12] = Cmax in ICR mouse at 1 mg/kg, iv measured upto 24 hrs by HPLC-MS/MS analysis; format: ADME, organism-based; settings: in vivo
[13] = Half life in ICR mouse at 1 mg/kg, iv measured upto 24 hrs by HPLC-MS/MS analysis; format: ADME, organism-based; settings: in vivo
[14] = biological target: T1, beta-catenin-B-cell lymphoma 9 protein complex; assay: Inhibition of beta-catenin (unknown origin)/BCL9 (unknown origin) protein-protein interaction; format: protein-complex assay

Structure (SMILES) | IC50 (cells) [µM] | IC50 [7] [µM] | Kd (Catenin beta-1) [µM] | other results
O=C1[C@H](Cc2ccc(O)cc2)N2C(=O)CCN(C(=O)NCc3ccccc3)[C@H]2CN1Cc1cccc2ccccc12 | 3.34 |  |  | 
CC(C)(Oc1cccc(N2CCC[C@@H](C(=O)N(Cc3ccc(-c4cn[nH]c4)cc3)C3CC3)C2)c1)C(=O)N1CCNCC1 | 3.34 |  |  | Activity (CT26 [1]): 14.9%; Activity [2]: 5.17%; inhibition in vivo at 30 mg/kg (CT26 [3]): 42.4%; microsomal CLint at 1 h (in vitro [4]): 888 µL/min/mg; inhibition in vivo at 30 mg/kg (CT26 [5]): 44.1%; half-life at 1 h (in vitro [6]): 2.37 min
CC(C)(Oc1cccc(N2CCC[C@H](NC(=O)N(Cc3ccc(-c4cn[nH]c4)cc3)C3CC3)C2)c1)C(=O)N1CCNCC1 | 4.35 |  |  | 
CC(C)(Oc1cccc(N2CCC[C@@H](NC(=O)N(Cc3ccc(-c4cn[nH]c4)cc3)C3CC3)C2)c1)C(=O)NCC(=O)N1CCCC1CCN (stereo partly specified) | 4.45 | 3.92 | 0.082 | 
CC(C)(Oc1cccc(N2CCC[C@@H](NC(=O)N(Cc3ccc(-c4cn[nH]c4)cc3)C3CC3)C2)c1)C(=O)NCCN | 2.54 | > 20 | 0.25 | 
CC(C)(Oc1cccc(N2CCC[C@H](NC(=O)N(Cc3ccc(-c4cn[nH]c4)cc3)C3CC3)C2)c1)C(=O)N1CCOCC1 | 8.24 |  |  | 
CC(C)(Oc1cccc(N2CCC[C@@H](NC(=O)N(Cc3ccc(-c4cn[nH]c4)cc3)C3CC3)C2)c1)C(=O)NCCCN | 2.88 |  |  | AUC(0-t) at 24 h [8]: 430 ng·h/mL; Activity [9]: Non-Toxic; clearance [10]: 40 mL/min/kg; Tmax [11]: 4.8 min; Cmax [12]: 910 ng/mL; inhibition in vivo at 30 mg/kg (CT26 [3]): 56.4%; microsomal CLint at 1 h (in vitro [4]): 67 µL/min/mg; half-life [13]: 40.2 min; half-life at 1 h (in vitro [6]): 31.5 min
CC(C)(Oc1cccc(N2CCC[C@H](NC(=O)N(Cc3ccc(-c4cn[nH]c4)cc3)C3CC3)C2)c1)C(=O)NCCN | 7.5 | 1.83 | 0.25 | 
CC(C)(Oc1cccc(N2CCC[C@H](NC(=O)N(Cc3ccc(-c4cn[nH]c4)cc3)C3CC3)C2)c1)C(=O)NCC(=O)N1CCCC1CCN (stereo partly specified) | 5.3 | 2.06 | 0.64 | 
CC(C)(Oc1cccc(N2CCC[C@@H](NC(=O)N(Cc3ccc(-c4cn[nH]c4)cc3)C3CC3)C2)c1)C(=O)N1CCNCC1 | 4.67 |  |  | 
CC(C)(Oc1cccc(N2CCC[C@H](NC(=O)N(Cc3ccc(-c4cn[nH]c4)cc3)C3CC3)C2)c1)C(=O)NCCCN | > 10 |  |  | 
CC(C)(Oc1cccc(N2CCC[C@@H](NC(=O)N(Cc3ccc(-c4cn[nH]c4)cc3)C3CC3)C2)c1)C(=O)N1CCOCC1 | 5.41 |  |  | 
CCCC(=O)Oc1ccc([N+](=O)[O-])cc1 |  |  |  | Ki [14]: 2.1 µM
